The record followed here is patent publication US8791267B2, “Biaryl PDE4 inhibitors for treating inflammatory, cardiovascular and CNS disorders” (Decode Genetics EHF, priority 2007, dated 2014).

Structures are written as SMILES. Where a name gives a salt, the structure may show the parent alone.

Sequence of PDE4 (Q08499 whole entry): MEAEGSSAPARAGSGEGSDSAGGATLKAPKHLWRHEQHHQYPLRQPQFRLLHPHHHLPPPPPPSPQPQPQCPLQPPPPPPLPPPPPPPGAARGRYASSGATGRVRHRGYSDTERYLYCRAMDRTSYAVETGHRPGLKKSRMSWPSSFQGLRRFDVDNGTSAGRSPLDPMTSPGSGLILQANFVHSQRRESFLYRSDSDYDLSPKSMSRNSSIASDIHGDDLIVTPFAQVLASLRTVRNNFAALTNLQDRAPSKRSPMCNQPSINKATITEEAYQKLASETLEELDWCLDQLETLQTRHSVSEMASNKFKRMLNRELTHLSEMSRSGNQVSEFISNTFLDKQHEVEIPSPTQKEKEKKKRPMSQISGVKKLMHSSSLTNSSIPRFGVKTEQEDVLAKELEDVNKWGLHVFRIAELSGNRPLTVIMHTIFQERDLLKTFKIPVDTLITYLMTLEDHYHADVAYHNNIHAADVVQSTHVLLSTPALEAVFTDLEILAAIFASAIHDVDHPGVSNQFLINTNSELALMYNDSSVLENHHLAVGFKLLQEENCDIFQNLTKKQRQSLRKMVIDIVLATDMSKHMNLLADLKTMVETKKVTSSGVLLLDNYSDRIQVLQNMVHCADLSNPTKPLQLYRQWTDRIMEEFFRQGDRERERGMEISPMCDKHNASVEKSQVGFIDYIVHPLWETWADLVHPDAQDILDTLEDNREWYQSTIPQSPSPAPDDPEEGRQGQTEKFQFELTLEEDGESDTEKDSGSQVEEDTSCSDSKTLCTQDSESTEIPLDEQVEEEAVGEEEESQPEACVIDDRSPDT

This assay has as its target PDE4 (Homo sapiens, UniProt Q08499). In words: In-vitro assay for PDE4 enzymes, real-time enzyme-coupled spectrophotometric assay (Table 9). The format is biochemical. To be noted: human PDE4D; activity class, Table 9; read-out: hPDE4D.
As for `CC(=O)Nc1ccc(NCc2ccc(O)c(-c3cccc(Cl)c3)c2F)cc1` [P-203, N-{4-[(3′-Chloro-2-fluoro-6-hydroxy-biphenyl-3-ylmethyl)-amino]-phenyl}-acetamide], the IC50 was less than 5 µM. On to `COCCOc1ccc(Cc2ccc(=O)n(CCOC)n2)cc1-c1cccc([N+](=O)[O-])c1` [P-018, 6-[6-(2-Methoxy-ethoxy)-3′-nitro-biphenyl-3-ylmethyl]-2-(2-methoxy-ethyl)-2H-pyridazin-3-one], for which the IC50 was 5 to 20 µM. Under `COc1ccc(Cc2ccc(Nc3nccs3)cc2)c(F)c1-c1cccc(Cl)c1` [P-466] stands less than 5 µM; under `COc1ccc(N(C)c2ccc(N)cc2)cc1-c1cccc(Cl)c1` [P-288, N-(3′-Chloro-6-methoxy-biphenyl-3-yl)-N-methyl-benzene-1,4-diamine; hydrochloride], less than 5 µM; under `COc1ccc(Cc2ccc(C(C)(C)N)nc2)c(F)c1-c1cccc(Cl)c1` [P-595, 1-[5-(3′-Chloro-2-fluoro-6-methoxy-biphenyl-3-ylmethyl)-pyridin-2-yl]-1-methyl-ethylamine], less than 5 µM. With `COc1ccc(Cc2ccc(F)cc2)c(F)c1-c1cccc(Br)c1` [P-139], the IC50 is less than 5 µM. With `COc1ccc(Cc2ccc(N3[C@@H](C)CC[C@@H]3C)nc2)c(F)c1-c1cccc(Cl)c1` [P-577, 5-(3′-Chloro-2-fluoro-6-methoxy-biphenyl-3-ylmethyl)-2-((2S,5S)-2,5-dimethyl-pyrrolidin-1-yl)-pyridine], the IC50 is less than 5 µM. Under `COc1ccc(Cc2ccc(F)cc2)cc1-c1cccnc1` [P-474, 3-[5-(4-Fluoro-benzyl)-2-methoxy-phenyl]-pyridine] stands less than 5 µM.

For `COc1ccc(Cc2ccc(F)cc2)nc1-c1cccc(C(F)(F)F)c1` [P-065, 6-(4-fluoro-benzyl)-3-methoxy-2-(3-trifluoromethyl-phenyl)-pyridine], the IC50 was less than 5 µM. Consider `[2H]C(O)(c1ccc(NC(N)=O)cc1)c1ccc(OC)c(-c2cccc(Cl)c2)c1` (stereo not drawn) [P-584], for which the IC50 was in the range of 5 to 20 µM. Under `COc1ccc(C(=O)c2ccc(NC(N)=O)cc2)c(F)c1-c1cccc(Cl)c1` [P-434, [4-(3′-chloro-2-fluoro-6-methoxy-biphenyl-3-carbonyl)-phenyl]-urea] stands less than 5 µM; under `CNc1ccc(Cc2ccc(OC)c(-c3cccc(Cl)c3)c2)cc1` [P-476, [4-(3′-Chloro-6-methoxy-biphenyl-3-ylmethyl)-phenyl]-methyl-amine hydrochloric acid], less than 5 µM. Turning to `COc1ccc(Cc2cccc(NC(C)=O)c2)cc1-c1cccc(Cl)c1` [P-477, N-[3-(3′-Chloro-6-methoxy-biphenyl-3-ylmethyl)-phenyl]-acetamide], the IC50 was less than 5 µM. For the compound `COc1ccc(Cc2ccc(N3CCOCC3)nc2)c(F)c1-c1cccc(Cl)c1` [P-377], the IC50 is less than 5 µM. Under `COc1ccc(Cc2ccc(N3CCC(O)C3)nc2)cc1-c1cccc(Cl)c1` (stereo not drawn) [P-602, 1-[5-(3′-chloro-6-methoxy-biphenyl-3-ylmethyl)-pyridin-2-yl]-pyrrolidin-3-ol] stands less than 5 µM; under `COc1ccc(Cc2ccc(F)cc2)cc1-c1cccc(SC)c1` [P-151, 5-(4-Fluoro-benzyl)-2-methoxy-3′-methylsulfanyl-biphenyl], less than 5 µM; under `COc1ccc(Cn2cc(-c3ccncn3)cn2)c(F)c1-c1cccc(Cl)c1` [P-546, 4-[1-(3′-Chloro-2-fluoro-6-methoxy-biphenyl-3-ylmethyl)-1H-pyrazol-4-yl]-pyrimidine hydrochloride salt], less than 5 µM. Under `COc1ccc(CN2C(=O)CC[C@@H]2CO)cc1-c1cccc([N+](=O)[O-])c1` [P-132, (R)-5-Hydroxymethyl-1-(6-methoxy-3′-nitro-biphenyl-3-ylmethyl)-pyrrolidin-2-one] stands 20 to 40 µM. Under `CCOc1ccc(Cc2ccc(NC(C)=O)cc2)c(F)c1-c1cccc(Br)c1` [P-322] stands less than 5 µM. For the compound `NC(=O)Nc1ccc(Cc2ccc(OC3CNC3)c(-c3cccc(Cl)c3)c2)cc1` [P-554, {4-[6-(Azetidin-3-yloxy)-3′-chloro-biphenyl-3-ylmethyl]-phenyl}-urea], the IC50 lay in the range of 5 to 20 µM.

As for `COc1ccc(Cc2ccc([N+](=O)[O-])c(O)c2)c(F)c1-c1cccc(Cl)c1` [P-257], the IC50 was less than 5 µM. Under `COc1ccc(N(C)c2ccc(NC(N)=O)cc2)cc1-c1cccc(Cl)c1` [P-293, {4-[(3′-Chloro-6-methoxy-biphenyl-3-yl)-methyl-amino]-phenyl}-urea] stands less than 5 µM; under `FC(F)Oc1ccc(Cc2ccc(N3CCC3)nc2)cc1-c1cccc(Cl)c1` [P-614, 2-Azetidin-1-yl-5-(3′-chloro-6-difluoromethoxy-biphenyl-3-ylmethyl)-pyridine], less than 5 µM; under `COc1ccc(Cn2nc(C(F)(F)F)cc2-c2cccnc2)c(F)c1-c1cccc(Cl)c1` [P-552, 3-[2-(3′-Chloro-2-fluoro-6-methoxy-biphenyl-3-ylmethyl)-5-trifluoromethyl-2H-pyrazol-3-yl]-pyridine hydrochloride salt], less than 5 µM. The same measure for `[2H]C(O)(c1ccc([N+](=O)[O-])cc1)c1ccc(OC)c(-c2cccc(Cl)c2)c1F` (stereo not drawn) [P-537, deutero-(3′-chloro-2-fluoro-6-methoxy-biphenyl-3-yl)-(4-nitro-phenyl)-methanol]: less than 5 µM. Under `COc1ccc([C@@](C)(O)c2ccc(NC(C)=O)cc2)c(F)c1-c1cccc(Cl)c1` (single isomer, unassigned) [P-561] stands less than 5 µM. For `COc1ccc(COc2cccc(NC(C)=O)c2)c(F)c1-c1cccc(Cl)c1` [P-231], the IC50 was less than 5 µM. For the compound `COc1ccc(-c2cc(Cc3ccc(F)cc3)ccc2OC)cc1C(C)=O` [P-170, 1-[5′-(4-Fluoro-benzyl)-4,2′-dimethoxy-biphenyl-3-yl]-ethanone], the IC50 was less than 5 µM. With `COc1ccc(Cc2ccc(NC(N)=O)cc2)c(F)c1-c1cccc(C(C)O)c1` (stereo not drawn) [P-340, {4-[2-Fluoro-3′-(1-hydroxy-ethyl)-6-methoxy-biphenyl-3-ylmethyl]-phenyl}-urea], the IC50 was less than 5 µM.

Consider `NC(=O)COc1ccc(Cc2ccc(NC(N)=O)cc2)cc1-c1cccc(Cl)c1` [P-557, 2-[3′-Chloro-5-(4-ureido-benzyl)-biphenyl-2-yloxy]-acetamide], for which the IC50 was less than 5 µM. The same measure for `COc1ccc(Cc2ccc(F)cc2)c(OC)c1-c1cccc([N+](=O)[O-])c1` [P-097]: less than 5 µM.

On to `COc1ccc(Cn2cc(-c3ccncc3)cn2)c(F)c1-c1cccc(Cl)c1` [P-528, 4-[1-(3′-Chloro-2-fluoro-6-methoxy-biphenyl-3-ylmethyl)-1H-pyrazol-4-yl]-pyridine], for which the IC50 is less than 5 µM. The same measure for `NC(=O)Nc1ccc(Cc2ccc(OC(F)F)c(-c3cccc(Cl)c3)c2)cn1` [P-616, [5-(3′-Chloro-6-difluoromethoxy-biphenyl-3-ylmethyl)-pyridin-2-yl]-urea]: less than 5 µM. The same measure for `COc1ccc(Cc2ccc(F)cc2)cc1-c1cccc(Cl)n1` [P-391, 2-Chloro-6-[5-(4-fluoro-benzyl)-2-methoxy-phenyl]-pyridine]: less than 5 µM.

For the compound `COc1ccc(Cc2ccccc2CNC=O)cc1-c1cccc([N+](=O)[O-])c1` [P-158, N-[2-(6-Methoxy-3′-nitro-biphenyl-3-ylmethyl)-benzyl]-formamide], the IC50 lay in the range of 5 to 20 µM.

`COc1ccc(Cc2ccc(N3CC[C@H]3C(N)=O)nc2)c(F)c1-c1cccc(Cl)c1` [P-615, (S)-1-[5-(3′-chloro-2-fluoro-6methoxy-biphenyl-3-ylmethyl)-pyridin-2-yl]-azetidine-2-carboxylic acid amide]: the IC50 is less than 5 µM.

As for `O=CNCc1ccccc1Cc1ccc(O)c(-c2cccc([N+](=O)[O-])c2)c1` [P-501, N-[2-(6-Hydroxy-3′-nitro-biphenyl-3-ylmethyl)-benzyl]-formamide], the IC50 fell in the range of 5 to 20 µM.

Regarding `[2H]C(O)(c1ccc(N)cc1)c1ccc(OC)c(-c2cccc(Cl)c2)c1F` (stereo not drawn) [P-538, deutero-(4-amino-phenyl)-(3′-chloro-2-fluoro-6-methoxy-biphenyl-3-yl)-methanol], the IC50 is less than 5 µM. Under `CCNC(=O)N1CCN(c2ccc(Cc3ccc(OC)c(-c4cccc(Cl)c4)c3F)cn2)CC1` [P-514, 4-[5-(3′-chloro-2-fluoro-6-methoxy-biphenyl-3-ylmethyl)-pyridin-2-yl]-piperazine-1-carboxylic acid ethylamide hydrochloride] stands less than 5 µM; under `COc1ccc(Cc2ccc(NC(=O)CN)cc2)c(F)c1-c1cccc(Cl)c1` [P-273], less than 5 µM. The same measure for `CCOC(=O)N1CCN(c2ccc(Cc3ccc(OC)c(-c4cccc(Cl)c4)c3F)cn2)CC1` [P-431]: less than 5 µM; for `COc1ccc(C(=O)c2ccc(N)cc2)cc1-c1cccc(Cl)c1` [P-558, (4-amino-phenyl)-(3′-chloro-6-methoxy-biphenyl-3-yl)-methanone]: less than 5 µM; for `CN(C)CCOc1ccc(Cc2ccc(NC(N)=O)cc2)cc1-c1cccc(Cl)c1` [P-548, {4-[3′-Chloro-6-(2-dimethylamino-ethoxy)-biphenyl-3-ylmethyl]-phenyl}-urea]: 5 to 20 µM.

Turning to `COc1ccc(Cc2ccc(OCCN3CCOCC3)cc2)c(F)c1-c1cccc(Cl)c1` [P-219], the IC50 is less than 5 µM. The same measure for `COc1ccc(Cc2ccc(N3CCC(O)C3)nc2)c(F)c1-c1cccc(Cl)c1` (stereo not drawn) [P-601, 1-[5-(3′-chloro-2-fluoro-6-methoxy-biphenyl-3-ylmethyl)-pyridin-2-yl]-pyrrolidin-3-ol]: less than 5 µM; for `COc1ccc(Cc2nnc(N)o2)cc1-c1cccc(Cl)c1` [P-306, 5-(3′-Chloro-6-methoxy-biphenyl-3-ylmethyl)-[1,3,4]oxadiazol-2-ylamine]: 5 to 20 µM.

For `COc1ccc(Cc2ccc(F)cc2)cc1-c1ccc2c(c1)OC(F)(F)O2` [P-141, 2,2-Difluoro-5-[5-(4-fluoro-benzyl)-2-methoxy-phenyl]-benzo[1,3]dioxole], the IC50 was less than 5 µM. The same measure for `O=[N+]([O-])c1cccc(-c2cc(Cc3ccc(F)cc3)ccc2OC(F)(F)F)c1` [P-080, 5-(4-Fluoro-benzyl)-3′-nitro-2-trifluoromethoxy-biphenyl]: less than 5 µM.
